Measured values as given in patent publication US10414721B1, “Inhibitor of endocannabinoid cellular reuptake” (University of Bern, priority 2018, dated 2019).

Tests used:
[1] = test system: AEA uptake in HMC-1 human mast cells; assay: AEA uptake inhibition in FAAH-deficient HMC-1 cells; format: cell-based
Method: All radioactivity-based AEA and 2-AG uptake and release assays performed in U937, and HMC-1 cells were carried out using two different assay formats as previously reported. AEA and 2-AG uptake assay in Neuro2a and primary mouse cortical neurons were performed with a different method disclosed in Chicca 2017.

[2] = 14C-WOBE437 saturation binding to mouse brain membranes; conditions: binding kinetics, high affinity site; read-out: affinity for membrane binding site
Method: In addition to their effects on AEA uptake, the inhibition of FAAH was thoroughly investigated for all nanomolar inhibitors. […] The lack of significant FAAH inhibition by WOBE437 was established in different assay systems using human recombinant enzyme, cell and brain homogenates. […] Importantly, WOBE437 (1 μM) inhibited AEA uptake also in primary mouse cortical neurons by 50% after 2-7 min of incubation with a smaller inhibition (20-35%) upon longer incubation (10-20 min, FIG. 1F). […] In Neuro2a cells, incubation with WOBE437 (5 μM) for 2 and 5 min reduced overall uptake by 40%. (FIG. 1G). […] Then cells were treated with radiolabeled ^14C-WOBE437 to investigate the cellular penetration of the compound. In U937 cells, the vast majority of the radioactive signal was collected in the extracellular and membrane-bound fractions (75-90%), with negligible amounts (5-9%) detected in the intracellular fraction (FIGS. 2A-D). […] In order to further investigate this point, ^14C-WOBE437 was applied to membrane preparations generated in-house from mouse brain and U937 cells. […] The Kd values are in line with the IC50 values shown in the functional AEA uptake assays in Neuro2a and U937 cells (FIGS. 1C and 1D). In further experiments, 10 nM of ^14C-WOBE437 was co-incubated with different concentrations of AEA and U937 membranes. […] Furthermore, the endocannabinoids AEA and noladin ether and the AEA uptake inhibitor OMDM-2 could compete with ^14C-WOBE437 binding in brain and U937 membranes. […] Secondary plots of the slope (Kmapp/Vmaxapp vs. [WOBE437]) and intercept (1/Vmaxapp vs. [WOBE437]) confirmed the competitive inhibition of AEA uptake.

[3] = target: CB2 receptor (Homo sapiens, UniProt P34972); assay: CB2 receptor binding assay
Chain of CB2 receptor (P34972 whole entry): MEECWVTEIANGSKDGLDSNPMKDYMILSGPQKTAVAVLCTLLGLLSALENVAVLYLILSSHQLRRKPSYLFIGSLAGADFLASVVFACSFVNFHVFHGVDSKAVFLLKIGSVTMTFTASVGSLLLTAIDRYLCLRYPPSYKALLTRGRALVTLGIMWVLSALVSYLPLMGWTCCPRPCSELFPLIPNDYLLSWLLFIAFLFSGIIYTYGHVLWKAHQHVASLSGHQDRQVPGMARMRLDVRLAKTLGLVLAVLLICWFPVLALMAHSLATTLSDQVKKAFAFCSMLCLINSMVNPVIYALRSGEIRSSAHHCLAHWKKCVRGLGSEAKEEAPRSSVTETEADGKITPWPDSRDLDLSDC
Method: CB1 and CB2 receptor binding assays [^35S]GTPγS assays were performed as previously described. WOBE437 was profiled in more detail in an extended CNS adverse drug reaction screening panel (CEREP).

[4] = test system: BALB/c male mice; assay: Endocannabinoid and NAE levels 1 h after oral administration; format: in vivo, mouse; conditions: for 2-AG level in plasma: control 16.1±2.9
Method: Male C57BL6/J or male BALB/c mice were orally administered by gavage with 10, 25, 50 or 100 mg/kg of WOBE437 (100 μL; olive oil and ethanol 8:2) using a metal feeding needle (20G, Kent Scientific, USA). The mice were sacrificed by decapitation after gavage administration. Brain, blood, liver, kidney and spleen were collected for the LC-MS/MS analyses. All tissues were briefly washed with ice cold PBS and immediately snap-frozen and stored at −80° C. Whole brain samples were dissected between the hemispheres. Blood samples were immediately centrifuged to obtain plasma, which was stored at −80° C.
Samples extractions and LC-MS/MS measurements were performed as previously described (Chicca et al., 2017). Briefly, tissues were weighted and transferred in to extraction tubes containing three steel beads and 0.1 M formic acid. Tissues were homogenized and rapidly transferred to glass tubes containing 1.5 mL of ethyl acetate:hexane (9:1) 0.1% formic acid and internal standards (ISs). Samples were centrifuged and the organic phase was recovered. After evaporation, the extracts were reconstituted in 200 μL of ACN:ddH2O (8:2). 10 μL of the solution were injected in the LC-MS/MS system using the same LC and ionization protocols as described (Chicca et al., 2017).

[5] = test system: BALB/c mice; assay: Complete Freund's adjuvant induced monoarthritis; format: in vivo, mouse
Method: BALB/c mice were anesthetized with xylazine/ketamine (5 and 10 mg/kg, respectively) and subsequently monoarthritis was induced by intra-articular injection of complete Freund's adjuvant (CFA, 40 μL; Sigma-Aldrich, St. Louis, USA) into the right knee joint. The inflammation was allowed to develop for 14 days prior to pharmacological treatments starting at day 15 for 1 or 3 days, respectively. Mechanical sensitivity (allodynia) and knee diameter (edema) were evaluated 1 h post treatment in the ipsilateral and contralateral knees. Articular sensitivity was evaluated using a digital algometer (Bioseb, USA). […] A cut-off force of 300 g was considered to avoid damage in the tissue. The measurements were done in triplicates and the average was considered for the statistical analysis. To evaluate the degree of inflammation, knee diameter was measured in both extremities using a digital micrometer (Mitutoyo, USA). WOBE437 was administered at doses of 2.5, 5 or 10 mg/kg, either as single dose or for 3 days treatment. To evaluate the involvement of CB1 and CB2 receptors, TRPV1 and PPARγ, rimonabant (5 mg/kg, CB1 receptor antagonist/inverse agonist), SR144528 (3 mg/kg, CB2 receptor antagonist/inverse agonist; Cayman Chemical, USA), capsazepine (5 mg/kg, TRPV1 antagonist; Tocris Bioscience, UK) and GW9662 (3 mg/kg, PPARγ antagonist; Tocris Bioscience, UK) were injected 30 min before WOBE437 administration. Indomethacin (5 mg/kg; Sigma-Aldrich, USA) was used as a reference drug (positive control). For all the compounds, dimethylsulfoxide (DMSO) was used as vehicle (20 μL, i.p.).

[6] = test system: major serine hydrolases; assay: Serine hydrolase activity in vivo; conditions: mouse

CCCCCCC/C=C/C=C/C(=O)NCCc1ccc(OC)c(OC)c1 [WOBE437, (2E,4E)-N-[2-(3,4-Dimethoxyphenyl)ethyl]dodeca-2,4-dienamide]
IC50 ([1]; HMC1, FAAH-deficient HMC-1 human mast cells, estimated): ~0.137 µM | Hill slope, AEA uptake ([1]; HMC-1 cells): −0.934 | Kd [2]: 0.01 to 0.02 µM | Ki [3]: 48 µM | 2-AG level in plasma ([4]; 25 mg/kg p.o.): 21.4 ± 4.5 pmol/mL | reduction of AEA concentration in plasma ([4]; 50 mg/kg p.o.): 23% | 2-AG levels in somatosensory cortex ([4]; 50 mg/kg p.o., 1 h): no changes | AEA levels in somatosensory cortex ([4]; 50 mg/kg p.o., 1 h): significant increase | AEA concentration in plasma ([4]; 50 mg/kg p.o., control 2.6±0.2): 2.2 ± 0.3 pmol/mL | 2-AG concentration in total brain ([4]; 50 mg/kg p.o., control 10.8±2.6): 13.9 ± 2.6 nmol/g | 2-AG level in plasma ([4]; 50 mg/kg p.o.): 22.6 ± 4.8 pmol/mL | 2-AG level in plasma ([4]; 100 mg/kg p.o.): 23.8 ± 5.7 pmol/mL | increase of 2-AG levels in plasma ([4]; 25, 50 and 100 mg/kg p.o.): 40% | AEA and 2-AG levels in total brain ([4]; p.o., 1 h): tendency to increase | levels of N-acylethanolamines other than AEA ([4]; somatosensory cortex, total brain or plasma): No changes | antiallodynia and antiinflammatory effects after rimonabant, SR144528 or GW9662 pre-treatment ([5]; 10 mg/kg i.p., 3 days): fully abolished | reduction of inflammation (edema) ([5]; 10 mg/kg i.p., 3 days): 58% | reduction in allodynia ([5]; 10 mg/kg i.p., 3 days, as compared to contralateral knee): 52% | knee diameter ([5]; 10 mg/kg i.p., 3 days, vehicle 6.5±0.9, contralateral 4.5±0.3): 5.3±0.4 mm | allodynia after single dose ([5]; 10 mg/kg i.p., single dose): significantly decrease allodynia | antiallodynia effect after SR144528 (3 mg/kg) or capsazepine (5 mg/kg) pre-treatment ([5]; 10 mg/kg i.p., single dose): completely prevented | antiallodynia effect after rimonabant or GW9662 pre-treatment ([5]; 10 mg/kg i.p., single dose): did not block | allodynia and edema ([5]; 2.5 and 5.0 mg/kg i.p.): did not show any significant changes | inhibition of major serine hydrolases in vivo [6]: did not inhibit
